Results taken from PubChem BioAssay (NCI).
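Each compound was tested at five concentrations against cells in 96-well plates for 48 hours. TGI: total growth inhibition.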

How the values were obtained:
Assay in all cases: inhibition of tumour cell growth, NCI panel, 48 h
786-0 renal = tested on: 786-0 renal
A498 renal = tested on: A498 renal
A549 NSCLC = tested on: A549 NSCLC
ACHN renal = tested on: ACHN renal
CAKI-1 renal = tested on: CAKI-1 renal
CCRF-CEM leukemia = tested on: CCRF-CEM leukemia
COLO 205 colon = tested on: COLO 205 colon
DU-145 prostate = tested on: DU-145 prostate
EKVX NSCLC = tested on: EKVX NSCLC
HCC-2998 colon = tested on: HCC-2998 colon
HCT-116 colon = tested on: HCT-116 colon
HL-60(TB) leukemia = tested on: HL-60(TB) leukemia
HOP-62 NSCLC = tested on: HOP-62 NSCLC
HOP-92 NSCLC = tested on: HOP-92 NSCLC
HS 578T breast = tested on: HS 578T breast
HT29 colon = tested on: HT29 colon
IGROV1 ovarian = tested on: IGROV1 ovarian
K-562 leukemia = tested on: K-562 leukemia
KM12 colon = tested on: KM12 colon
LOX IMVI melanoma = tested on: LOX IMVI melanoma
M14 melanoma = tested on: M14 melanoma
MALME-3M melanoma = tested on: MALME-3M melanoma
MCF7 breast = tested on: MCF7 breast
MDA-MB-231 breast = tested on: MDA-MB-231 breast
MDA-MB-435 = tested on: MDA-MB-435
MDA-N = tested on: MDA-N
MOLT-4 leukemia = tested on: MOLT-4 leukemia
NCI-H226 lung = tested on: NCI-H226 lung
NCI-H23 lung = tested on: NCI-H23 lung
NCI-H460 lung = tested on: NCI-H460 lung
NCI-H522 lung = tested on: NCI-H522 lung
NCI/ADR-RES ovarian = tested on: NCI/ADR-RES ovarian
OVCAR-3 ovarian = tested on: OVCAR-3 ovarian
OVCAR-4 ovarian = tested on: OVCAR-4 ovarian
OVCAR-5 ovarian = tested on: OVCAR-5 ovarian
OVCAR-8 ovarian = tested on: OVCAR-8 ovarian
PC-3 prostate = tested on: PC-3 prostate
RPMI-8226 leukemia = tested on: RPMI-8226 leukemia
RXF 393 renal = tested on: RXF 393 renal
SF-268 CNS = tested on: SF-268 CNS
SF-295 CNS = tested on: SF-295 CNS
SF-539 CNS = tested on: SF-539 CNS
SK-MEL-28 melanoma = tested on: SK-MEL-28 melanoma
SK-MEL-5 melanoma = tested on: SK-MEL-5 melanoma
SK-OV-3 ovarian = tested on: SK-OV-3 ovarian
SN12C renal = tested on: SN12C renal
SNB-19 CNS = tested on: SNB-19 CNS
SNB-75 CNS = tested on: SNB-75 CNS
SR leukemia = tested on: SR leukemia
SW-620 colon = tested on: SW-620 colon
T-47D breast = tested on: T-47D breast
TK-10 renal = tested on: TK-10 renal
UACC-257 melanoma = tested on: UACC-257 melanoma
UACC-62 melanoma = tested on: UACC-62 melanoma
UO-31 renal = tested on: UO-31 renal

Measured: TGI

CC(CO)CCNc1ncnc2c1ncn2CCC(=O)OC(C)(C)C (stereo not given)
> 100 µM: all assays above
